Measured values taken from ChEMBL document CHEMBL1201862, “PubChem BioAssay data set” (2004).
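Assay format: 96-well plates, 48-hour exposure. GI50 marks 50% less growth.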 Calls of active or inactive are those of the source. No stated cut-off is given here; in the data, active = GI50 up to about 1.1 µM and inactive = higher.

Legend:
Test in all cases: inhibition of tumour cell growth, NCI panel, 48 h
HCT-15 = test system: HCT-15
NCI-H23 = test system: NCI-H23
SW-620 = test system: SW-620
MOLT-4 = test system: MOLT-4
KM12 = test system: KM12
OVCAR-4 = test system: OVCAR-4
MDA-MB-231 = test system: MDA-MB-231
K562 = test system: K562
SN12C = test system: SN12C
786-0 = test system: 786-0
OVCAR-3 = test system: OVCAR-3
SK-OV-3 = test system: SK-OV-3
MDA-N = test system: MDA-N
NCI-H522 = test system: NCI-H522
OVCAR-8 = test system: OVCAR-8
ACHN = test system: ACHN
HOP-92 = test system: HOP-92
HOP-62 = test system: HOP-62
HL-60 = test system: HL-60

Measured: GI50

COc1ccc(-c2cc(-c3ccccc3)nc(N)c2-c2ccc3ccccc3c2)cc1
1.54 µM: HCT-15
active: OVCAR-4 0.979 µM | NCI-H522 < 0.01 µM
inactive: NCI-H23 1.86 µM | SW-620 1.75 µM | MOLT-4 2.37 µM | KM12 1.73 µM | MDA-MB-231 1.6 µM | K562 2.94 µM | SN12C 1.86 µM | 786-0 1.73 µM | OVCAR-3 2.47 µM | SK-OV-3 3.84 µM | MDA-N 1.6 µM | OVCAR-8 1.66 µM | ACHN 2.05 µM | HOP-92 1.5 µM | HOP-62 2.3 µM

O=C1NCCCNCCCNCCCNC(=O)c2cccc1n2
inactive: NCI-H23 > 100 µM | SW-620 > 100 µM | MOLT-4 > 100 µM | KM12 > 100 µM | OVCAR-4 > 100 µM | MDA-MB-231 > 100 µM | K562 > 100 µM | SN12C > 100 µM | 786-0 > 100 µM | OVCAR-3 > 100 µM | SK-OV-3 > 100 µM | MDA-N > 100 µM | NCI-H522 > 100 µM | OVCAR-8 > 100 µM | ACHN > 100 µM | HOP-62 > 100 µM
> 100 µM: HCT-15

COc1cc(OC)c2nc(C)c(CCCl)c(Cl)c2c1
inactive: NCI-H23 > 100 µM | SW-620 > 100 µM | HL-60 > 100 µM | MOLT-4 > 100 µM | KM12 > 100 µM | OVCAR-4 > 100 µM | MDA-MB-231 > 100 µM | K562 > 100 µM | SN12C > 100 µM | 786-0 > 100 µM | OVCAR-3 > 100 µM | SK-OV-3 > 100 µM | MDA-N > 100 µM | NCI-H522 > 100 µM | OVCAR-8 > 100 µM | ACHN > 100 µM | HOP-62 > 100 µM
> 100 µM: HCT-15

COc1ccc(C2SCC(=O)N2NC2=NC(=O)CC(=O)N2)cc1 (stereo unspecified)
inactive: NCI-H23 > 100 µM | SW-620 > 100 µM | MOLT-4 > 100 µM | KM12 > 100 µM | OVCAR-4 > 100 µM | MDA-MB-231 > 100 µM | K562 > 100 µM | SN12C > 100 µM | 786-0 > 100 µM | OVCAR-3 > 100 µM | SK-OV-3 > 100 µM | MDA-N > 100 µM | NCI-H522 > 100 µM | OVCAR-8 > 100 µM | ACHN > 100 µM | HOP-92 > 100 µM | HOP-62 > 100 µM
> 100 µM: HCT-15

CC(C)(C)OC(=O)Cn1ncn(NC(=O)Cc2ccccc2)c1=S
inactive: NCI-H23 > 10 µM | SW-620 > 10 µM | MOLT-4 > 10 µM | KM12 > 10 µM | OVCAR-4 > 10 µM | MDA-MB-231 > 10 µM | K562 > 10 µM | SN12C > 10 µM | 786-0 > 10 µM | OVCAR-3 > 10 µM | SK-OV-3 > 10 µM | MDA-N > 10 µM | NCI-H522 > 10 µM | OVCAR-8 > 10 µM | ACHN > 10 µM | HOP-92 > 10 µM | HOP-62 > 10 µM
> 10 µM: HCT-15

CC(=O)c1c(=O)n(-c2ccc(C)cc2)c(O)c2c(N)n[nH]c12
inactive: NCI-H23 > 100 µM | SW-620 > 100 µM | HL-60 > 100 µM | MOLT-4 > 100 µM | KM12 > 100 µM | OVCAR-4 > 100 µM | MDA-MB-231 > 100 µM | K562 > 100 µM | SN12C > 100 µM | 786-0 > 100 µM | OVCAR-3 > 100 µM | SK-OV-3 > 100 µM | MDA-N > 100 µM | NCI-H522 > 100 µM | OVCAR-8 > 100 µM
> 100 µM: HCT-15

C\C(=N/N=C1/C(=C\N(C)C)C(=O)NC(=O)N1C)c1ccc(Cl)cc1
inactive: NCI-H23 > 100 µM | SW-620 89.7 µM | MOLT-4 > 100 µM | KM12 44.6 µM | OVCAR-4 > 100 µM | MDA-MB-231 > 100 µM | K562 > 100 µM | SN12C > 100 µM | 786-0 > 100 µM | OVCAR-3 > 100 µM | SK-OV-3 > 100 µM | MDA-N > 100 µM | NCI-H522 62.2 µM | OVCAR-8 > 100 µM | ACHN > 100 µM | HOP-92 > 100 µM | HOP-62 > 100 µM
> 100 µM: HCT-15

COc1ccc2c(c1)-c1c(c3cc(OC)ccc3n1CCN(C)C)CC2
inactive: NCI-H23 15.5 µM | SW-620 15.2 µM | MOLT-4 10.7 µM | KM12 14 µM | OVCAR-4 17.1 µM | MDA-MB-231 13.9 µM | K562 6.81 µM | SN12C 12.9 µM | 786-0 10.8 µM | OVCAR-3 14.3 µM | SK-OV-3 21.5 µM | MDA-N 14.2 µM | NCI-H522 17.9 µM | OVCAR-8 17.4 µM | ACHN 15.1 µM | HOP-92 14.1 µM | HOP-62 15.8 µM
13.6 µM: HCT-15
